Assay results reported in patent US11478474B2, “2-(3′-(hydroxymethyl)-1-methyl-5-((5-(2-methyl-4-(oxetan-3-yl)piperazin-1-yl)pyridin-2-yl)amino)-6-oxo-1,6-dihydro-[3,4′-bipyridin]-2′-yl)-7,7-dimethyl-7,8-dihydro-2H-cyclopenta[4,5]pyrrolo[1,2-a]pyrazin-1(6H)-one as a BTK inhibitor” (HUTCHISON MEDIPHARMA LIMITED, priority 2020, dated 2022).

What was measured:
[1] = In vivo efficacy of the inhibitory effect on BTK target (anti-IgD antibody-induced B cell activation in mice whole blood after in vivo administration); conditions: female, C57BL/6, mouse; 20 mg/kg single oral gavage, 16 h, mice plasma; read-out: Drug concentration in plasma
Protocol: (§1) Objects: B cells in mice whole blood were induced and activated by the anti-IgD antibody, and the inhibitory effect of the compound of the present invention on B cell activation in vivo was studied, so as to determine the inhibitory effect of the compound of the present invention on the BTK target in vivo.
(§2) Methods: C57BL/6 mice (female, 18-20 g, purchased from Shanghai Lingchang Biotechnology Co., Ltd.) were grouped according to Table 2.
(§3) The animals of each group were administered, then were placed in CO2 for anesthesia at designated time points, blood samples were taken from […] via retro-orbital bleeding, and heparin was used for anticoagulation; 90 μL of whole blood was taken from mice of each group, and added to a 96 well culture plate, and anti-mouse IgD antibody (BIO-RAD, Cat #MCA4693) was added to each well to a final concentration of 0.01 μg/μL (respectively for the each drug-treated group and anti-IgD antibody-inducted vehicle group); in addition, 90 μL of whole blood of mice in the vehicle group was taken and added to the 96-well culture plate, and PBS (phosphate buffer, GIBCO, Cat #C20012500BT) was added to each well to a final concentration of 0.01 μg/μL (namely, the vehicle control group); Each group was mixed well and incubated in a 37° C./5% CO2 incubator for 4 hours. In addition, the blood of mice in the drug-treated group was centrifuged to separate plasma for blood concentration analysis.
(§4) Calculation for B Cell Activation Ratio: B cell activation ratio=percentage of CD69+CD19+double positive B cells/percentage of CD19+single positive B cells
(§5) Calculation for Inhibition Ratio: Inhibition ratio=(percentage of B cell activation ratio in anti-IgD antibody-induced vehicle group-percentage of B cell activation ratio in drug-treated group)/(percentage of B cell activation ratio in anti-IgD antibody-induced vehicle group-percentage of B cell activation ratio in vehicle control group)×100%
(§6) All data are represented by mean±standard error. For the comparison between each drug-treated group and the anti-IgD antibody-induced vehicle group, p value was calculated by Graphpad Prism using one-way ANOVA analysis of variance and Dunnett's test, and for the comparison between each drug-treated group, p value was calculated by using unpaired t test.

[2] = test system: B cell activation in mouse whole blood induced by anti-IgD antibodies; experiment: as above
Protocol: as §1, §2, §3, §4, §5, §6

[3] = target: phosphorylated BTK in Ramos cells (Homo sapiens (Human), UniProt Q06187); experiment: Determination of phosphorylated BTK in Ramos cells (BTK phospho-Y223 HTRF); type: cell-based; conditions: anti-human IgM + hydrogen peroxide stimulation
phosphorylated BTK in Ramos cells, sequence (Q06187 whole entry): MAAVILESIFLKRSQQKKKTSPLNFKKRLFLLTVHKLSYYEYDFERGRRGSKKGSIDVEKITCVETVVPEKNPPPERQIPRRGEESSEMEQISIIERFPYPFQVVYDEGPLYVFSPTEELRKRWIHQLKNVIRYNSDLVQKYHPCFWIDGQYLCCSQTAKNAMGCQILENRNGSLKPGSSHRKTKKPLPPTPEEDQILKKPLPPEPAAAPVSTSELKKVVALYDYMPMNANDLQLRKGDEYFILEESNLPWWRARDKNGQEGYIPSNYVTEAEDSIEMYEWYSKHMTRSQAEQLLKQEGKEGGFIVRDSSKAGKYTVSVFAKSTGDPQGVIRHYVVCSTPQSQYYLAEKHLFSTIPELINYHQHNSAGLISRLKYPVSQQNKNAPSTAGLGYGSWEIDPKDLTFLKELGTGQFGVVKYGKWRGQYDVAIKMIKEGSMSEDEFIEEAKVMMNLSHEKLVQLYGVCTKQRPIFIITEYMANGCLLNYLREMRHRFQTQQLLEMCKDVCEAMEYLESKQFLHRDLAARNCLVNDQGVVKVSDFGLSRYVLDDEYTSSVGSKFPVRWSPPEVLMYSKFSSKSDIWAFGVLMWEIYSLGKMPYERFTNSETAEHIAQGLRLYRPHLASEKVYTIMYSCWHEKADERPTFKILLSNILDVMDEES
Method in brief: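 BTK Y223 phosphorylation measured by HTRF (665/615 nm) in lysates of Ramos cells. Cells were serum-starved 2 h, exposed to compound for 1 h (final 0.00018–3.0 μM, 0.3% DMSO), then stimulated 10 min with 10 μg/mL anti-IgM and 3.3 mM H2O2. IC50 derived from percent inhibition between unstimulated and stimulated controls.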

[4] = Stability test in liver microsomes (rat); type: in vitro ADME
Text: (§7) Example 5 Stability Test in Liver Microsomes
(§8) Both male CD-1 mouse pooled liver microsomes and male SD rat pooled liver microsomes were purchased from BioreclamationIVT Corporation, USA.
(§9) Phenacetin, glucose-6-phosphate dehydrogenase (G-6-PDH) and nicotinamide adenine dinucleotide phosphate (NADP) were all purchased from Sigma-Aldrich Corporation, USA. Glucose-6-phosphate (G-6-P) was purchased from Shanghai Eybridge Chemical Technology Co., Ltd.
(§10) Ten mM test compound stock solution: a certain amount of test compound was weighed, and dissolved with an appropriate volume of DMSO to prepare a stock solution with a concentration of 10 mM for use.
(§11) Reaction stopping solution: an appropriate amount of internal standard compound phenacetin was dissolved in acetonitrile to prepare a reaction stopping solution with a concentration of 1000 ng/mL for use at room temperature.
(§12) The test compound stock solution was diluted with an organic solvent (usually a mixture of acetonitrile, methanol and water with various ratios, depending on the solubility of the compound, if necessary, 1 N hydrochloric acid or 1 N sodium hydroxide would be added to facilitate solubilization) to the 0.1 mM (the final concentration of the compound in the reaction system was 1 μM) and the concentration percentage of the organic solvents in the incubation system no more than 1% (wherein the percentage of DMSO was required to be no more than 0.1%). An appropriate amount of 100 mM NADP, 500 mM G-6-P and 100 Unit/mL G-6-PDH were mixed and diluted with ultrapure water (the final system contains 1 mM NADP, 5 mM G-6-P and 1 Unit/mL G-6-PDH), pre-incubated in a 37° C. water bath for 10 minutes and then placed on ice for use as a NADPH regeneration solution. 20 mg/mL liver microsomes solution and 200 mM phosphate buffer was mixed, and diluted with ultrapure water to give a liver microsomes solution containing 2.5 mg/mL liver microsomes (the final concentration of the reaction system is 0.5 mg/mL) and 50 mM phosphate buffer. The diluted liver microsomes solution was mixed with 0.1 mM compound solution, a mixture of 100 mM EDTA, 300 mM MgCl2 solution, 200 mM phosphate buffer (the final system was 3 mM MgCl2, 1 mM EDTA and 50 mM phosphate buffer) and water in an appropriate volume was added. Finally, the NADPH regeneration solution was added, then the reaction solution was placed in a 37° C. water bath to start the reaction (the reaction time was 30 minutes), and the reaction was stopped by adding the ice-cold acetonitrile reaction stopping solution containing the internal standard. The 0-minute sample was not incubated in a 37° C. water bath, and its difference from the 30-minute sample further lies in that the ice-cold acetonitrile reaction stopping solution containing the internal standard was added first, and then the NADPH regeneration solution was added. The sample added with the reaction stopping internal standard solution was vortexed and mixed well, and then centrifuged at 4400 rpm for 10 minutes. The supernatant was taken and diluted ten times with 50% methanol for LC-MS/MS analysis.
(§13) LC-MS/MS was used to determine the concentration of the compound in the sample. The percentage of the remaining compound after 30 minutes of incubation comparing with that in the 0-minute sample was calculated using the peak area ratio of the compound to the internal standard as an indicator, to evaluate the metabolic stability of the compound.
(§14) Instrument: API4500, API4000 or LTQ Mass Spectrometer; the liquid phase is UHPLC system (Shimadzu LC-30 AD, model Nexra X2) including liquid delivery unit, column thermostat, detector and autosampler; or Agilent 1200 Binary Pump series HPLC and CTC Autosampler.
(§15) Chromatographic column: Waters XSELECT Hss T3 C18 (2.5 μm, 2.1×50 mm) or […] (5 μm, 2.0×50 mm)
(§16) A: water with 0.1% FA (formic acid) (with or without 0.1% ACN (acetonitrile))
(§17) B: acetonitrile with 0.1% FA (formic acid).

[5] = Stability test in liver microsomes (mouse); type: in vitro ADME; conditions: mouse liver microsomes 0.5 mg/mL, compound 1 μM, 37° C.
Text: as §7, §8, §9, §10, §11, §12, §13, §14, §15, §16, §17

[6] = test system: TMD8 subcutaneous xenograft (human diffuse large B-cell lymphoma cells); experiment: In vivo efficacy in TMD8 subcutaneous xenograft model in nude mice
Protocol: Example 7 Evaluation of In Vivo Efficacy of the Compound of the Present Invention in TMD8 Subcutaneous Xenograft Model
Objects: To investigate the anti-tumor activity of compound 19 in TMD8 subcutaneous xenograft model in nude mice.
Methods: Human diffuse large B-cell lymphoma cells TMD8 (acquired under license from Tokyo Medical and Dental University) were cultured in RPMI1640 medium containing 10% fetal bovine serum. 1×10^7 tumor cells suspended in RPMI1640 medium mixed well with Matrigel (purchased from Corning, USA) at 1:1 were implanted subcutaneously on the right flank of each male Balb/c nude mouse (Shanghai Lingchang Biotechnology Co., Ltd.), pretreated with cyclophosphamide (at a dose of 200 mg/kg, intraperitoneal injection 24 h before cell inoculation). […] All drugs were administered by oral gavage, once a day, and the vehicle control group was administered orally with 0.5% hydroxypropyl methylcellulose solution (pH=3).
Tumor volumes (tumor volume=0.5×long diameter×short diameter^2) and body weights of the mice were measured regularly. The tumor volume change and body weight were statistically analyzed, with p<0.05 considered statistically significant, and p<0.01 as extremely statistically significant.
The anti-tumor activity was evaluated by tumor growth inhibition. Tumor growth inhibition (TGI %)=100%×(1−(TVDt (treatment group)−TVD0 (treatment group))/(TVDt (control group)−TVD0 (control group))) Relative body weight (RBW %)=BWDt/BWD0×100%
wherein, TVD0 represents the tumor volume obtained at first measurement, namely, the tumor volume before drug administration, and TVDt represents the tumor volume on the day of measurement; BWD0 represents the body weight of the animal obtained at first measurement, namely, the body weight of the animal before drug administration; BWDt represents the body weight of the animal on the day of measurement.

[7] = 50 mg/kg oral gavage once a day, Day 21

In the case of Cn1cc(-c2ccnc(-n3ccn4c5c(cc4c3=O)CC(C)(C)C5)c2CO)cc(Nc2ccc(N3CCN4CCOCC4C3)cn2)c1=O (racemic) [Compound 232], the concentration at 16 h [1] is reported as 76.2 ± 41.7 ng/mL, the “Inhibition ratio (%)” value ([2]; 20 mg/kg single oral gavage, 16 h) is reported as 89% and the “B cell activation ratio (the proportion of activated B cells to total B cells)” value ([2]; 20 mg/kg single oral gavage, 16 h, mean ± standard error) is reported as 8.4 ± 1.9^***&. For the same molecule, the “inhibition ratio on B cell activation” value ([2]; 20 mg/kg, 16 hours after administration, mice whole blood, anti-IgD antibody) was 89%.
In the case of Cn1cc(-c2ccnc(-n3ccn4c5c(cc4c3=O)CC(C)(C)C5)c2CO)cc(Nc2ccc(N3CCN(C4COC4)CC3=O)cn2)c1=O [Compound 34], the IC50 [3] is reported as 10 nM, the “stability in rat & mouse liver microsomes compared with the reference GDC-0853” value ([4]; rat & mouse liver microsomes, 30 minutes) is reported as “better than that of the reference GDC-0853” and the “RLM (percentage of the remaining compound after 30 minutes of incubation)” value ([4]; rat liver microsomes 0.5 mg/mL, compound 1 μM, 37° C.) is reported as ~100%. The “MLM (percentage of the remaining compound after 30 minutes of incubation)” value [5] was 89.5%.
For C=CC(=O)N1CCC[C@@H](n2nc(-c3ccc(Oc4ccccc4)cc3)c3c(N)ncnc32)C1 [Ibrutinib, reference compound], the “Number of animals with CR (Day 21)” value ([6]; 50 mg/kg oral gavage once a day, 8 animals per group) was 1, the “Tumor volume (mm^3) ± SD Day 0” value ([6]; 50 mg/kg oral gavage once a day, Day 0, before drug administration) was 397 ± 42 mm^3 and the “TGI (%)” value [6, 7] was 42.4%. The “Tumor volume (mm^3) ± SD Day 21” value [6, 7] was 2027 ± 991 mm^3, the “RBW (%) (Day 21)” value ([6]; 50 mg/kg oral gavage once a day, relative body weight) was 111.4% and the “Tumor growth inhibition (TGI %)” value ([6]; 50 mg/kg, oral gavage once a day, 21 days after treatment, vs vehicle control) was 42.4%.
